Experimental data published in publication PMC6017115, “Inhibitory Effect of Sauchinone on UDP-Glucuronosyltransferase (UGT) 2B7 Activity” (Molecules : A Journal of Synthetic Chemistry and Natural …, 2018).

Legend:
Assay type in all cases: in vitro ADME
UGT1A6 = target: T1, UGT1A6 (Homo sapiens, UniProt P19224); test: Enzyme kinetic assay (Ki, Dixon plot) of UGT1A6-mediated serotonin glucuronidation; settings: for inhibition mode on UGT1A6: Dixon plot, visual inspection
T1 construct: tissue Corning Life Sciences 452156; host or cells: pooled human liver microsomes
T1 sequence (P19224 27-532): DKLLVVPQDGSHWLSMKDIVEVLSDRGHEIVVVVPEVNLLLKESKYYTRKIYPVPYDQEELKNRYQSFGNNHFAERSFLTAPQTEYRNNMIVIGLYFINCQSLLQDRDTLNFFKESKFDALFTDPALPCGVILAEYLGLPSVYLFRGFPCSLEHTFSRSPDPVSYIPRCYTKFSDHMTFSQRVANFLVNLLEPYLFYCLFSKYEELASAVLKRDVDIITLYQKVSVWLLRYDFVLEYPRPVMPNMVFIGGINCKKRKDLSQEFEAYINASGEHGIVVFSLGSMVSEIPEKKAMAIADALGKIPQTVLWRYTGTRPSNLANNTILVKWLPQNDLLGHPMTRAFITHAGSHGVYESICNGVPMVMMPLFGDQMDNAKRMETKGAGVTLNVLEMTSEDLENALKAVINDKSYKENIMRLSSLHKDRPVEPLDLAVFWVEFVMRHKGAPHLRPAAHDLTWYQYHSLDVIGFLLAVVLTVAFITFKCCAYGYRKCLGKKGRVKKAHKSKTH
Method: Inhibitory effects of sauchinone on UGT1A1, 1A3, 1A4, 1A6, 1A9, and 2B7 activities were evaluated using HLMs. […] Spiked volume of UGT cocktail set was 1% (v/v) of total volume of mixture. […] The reaction was initiated by adding 5 mM UDPGA to a final volume of 150 μL and incubated at 37 °C for 15 or 60 min in a thermomixer at 500 rpm. Each reaction was stopped by adding 150 μL of ice-cold methanol containing 50 ng/mL IS. These mixtures were then centrifuged (12,000 rpm for 10 min at 4 °C) and 5 μL of the supernatant was injected into a UPLC-MS/MS system. […] Their IC50 values were compared to that of sauchinone. All inhibitors were dissolved in methanol (except for hecogenin, which was dissolved in dimethyl sulfoxide) and serially diluted to the required concentrations using the same solutions. The final concentration of organic solvent of inhibitors was 1% (v/v). All studies were performed in triplicate and mean values were used in the analysis. The half maximal inhibition constant (IC50) of sauchinone on UGT isoforms was estimated using GraphPad program.
Based on IC50 values, Ki values of sauchinone for UGT1A6 and 2B7 were determined. Concentrations of 0–200 μM of sauchinone were used. Other procedures were similar to those mentioned above in the study of reversible inhibitory effects of sauchinone. Inhibitory characteristics of sauchinone were initially estimated by nonlinear least squares regression analysis and Ki values were determined by Dixon plots.

UGT1A4 = target: T2, UGT1A4 (Homo sapiens, UniProt P22310); test: Inhibition of UGT1A4 (trifluoperazine glucuronidation) in human liver microsomes; settings: human liver microsomes
T2 construct: The reaction mixture containing 0.25 mg/mL protein of HLM; tissue Corning Life Sciences 452156; host or cells: pooled human liver microsomes, 50 donors
T2 sequence (P22310 29-534): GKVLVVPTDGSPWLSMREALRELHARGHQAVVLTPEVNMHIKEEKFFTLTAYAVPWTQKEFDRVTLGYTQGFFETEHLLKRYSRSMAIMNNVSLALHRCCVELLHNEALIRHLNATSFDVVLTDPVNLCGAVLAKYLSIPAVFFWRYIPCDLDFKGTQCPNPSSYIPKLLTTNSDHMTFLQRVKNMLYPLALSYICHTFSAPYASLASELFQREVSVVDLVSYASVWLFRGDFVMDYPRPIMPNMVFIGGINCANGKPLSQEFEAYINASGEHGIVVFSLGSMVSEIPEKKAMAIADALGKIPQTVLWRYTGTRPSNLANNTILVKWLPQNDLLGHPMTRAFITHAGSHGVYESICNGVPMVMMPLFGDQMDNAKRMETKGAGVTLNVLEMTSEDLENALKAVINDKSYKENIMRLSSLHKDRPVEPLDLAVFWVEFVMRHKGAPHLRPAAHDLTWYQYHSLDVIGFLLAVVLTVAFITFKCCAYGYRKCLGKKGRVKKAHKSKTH
Method: Their IC50 values were compared to that of sauchinone. […] UGT-mediated activities in the presence of sauchinone as an inhibitor were expressed as percentages of corresponding control values (in absence of sauchinone). From percentages of control activity versus inhibitor concentrations, a sigmoid shaped curve was fitted to the data and IC50 as an enzyme inhibition parameter was calculated by fitting the Hill equation to the data using GraphPad Prism 5 (GraphPad Software Inc., San Diego, CA, USA).

Ugt1a1 = target: T3, Ugt1a1 (Mus musculus, UniProt Q63886); test: Inhibition of Ugt1a1 (β-estradiol) in mice liver microsomes; settings: pH 7.6, probe β-estradiol (10 μM, in UGT substrate cocktail), read-out: IC50 of Ugt1a1-catalyzed β-estradiol
T3 construct: from tissue; host or cells: mouse liver microsomes prepared in house
T3 sequence (Q63886 30-535): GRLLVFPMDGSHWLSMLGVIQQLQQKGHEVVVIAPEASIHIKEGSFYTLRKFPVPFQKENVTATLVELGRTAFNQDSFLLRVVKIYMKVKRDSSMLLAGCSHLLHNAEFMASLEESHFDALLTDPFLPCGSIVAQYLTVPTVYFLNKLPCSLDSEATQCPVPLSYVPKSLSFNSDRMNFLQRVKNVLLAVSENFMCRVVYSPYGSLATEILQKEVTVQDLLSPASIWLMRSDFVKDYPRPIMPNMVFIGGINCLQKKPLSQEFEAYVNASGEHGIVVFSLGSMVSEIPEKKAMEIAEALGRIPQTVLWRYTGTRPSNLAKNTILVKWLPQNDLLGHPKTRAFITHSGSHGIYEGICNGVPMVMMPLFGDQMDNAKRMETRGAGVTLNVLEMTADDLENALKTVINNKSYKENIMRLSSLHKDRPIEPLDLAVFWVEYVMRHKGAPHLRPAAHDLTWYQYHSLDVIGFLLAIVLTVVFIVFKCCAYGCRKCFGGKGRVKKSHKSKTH
Method: Their IC50 values were compared to that of sauchinone. […] Mice were sacrificed and then livers were removed and rinsed with saline. After weighing the livers, they were homogenized with a four-fold volume of ice-cold homogenizing buffer (0.154 M KCl, 50 mM Tris-base, 1 mM EDTA, pH 7.4). After centrifugation for 35 min at 9000× g and 4 °C, the supernatants were centrifuged for 95 min at 100,000× g and at 4 °C. The supernatants were discarded and the pellets were homogenized again with ice-cold homogenizing buffer. These aliquots were stored at −80 °C. The subsequent process to evaluate the inhibitory effects of sauchinone on UGT activities in MLM was the same as those using HLM. UGT-mediated activities in the presence of sauchinone as an inhibitor were expressed as percentages of corresponding control values (in absence of sauchinone). From percentages of control activity versus inhibitor concentrations, a sigmoid shaped curve was fitted to the data and IC50 as an enzyme inhibition parameter was calculated by fitting the Hill equation to the data using GraphPad Prism 5 (GraphPad Software Inc., San Diego, CA, USA).

C[C@@H]1[C@H]2c3cc4c(cc3O[C@@]35OCOC3=CC(=O)[C@H](C[C@H]1C)[C@@H]25)OCO4 [Sauchinone]
Ki (UGT1A6): 1.08 µM
inhibition mode on UGT1A6 (UGT1A6): noncompetitively inhibited
inhibition mode on UGT1A6 (UGT1A6; listed as sauchinone): noncompetitive inhibition mode
Vmax for UGT1A6-mediated serotonin glucuronidation with inhibitor (UGT1A6; sauchinone as inhibitor at 50 μM (decrease from 174 at 0 μM)): 6.36 μM/min/mg protein
inhibitory effect on UGT1A4 activity (UGT1A4; sauchinone up to 200 μM): negligible inhibitory effect
IC50 (UGT1A4; substrate 40 μM trifluoperazine, mean (minimum–maximum), read-out: IC50 for inhibition of UGT1A4): > 200 µM
IC50 (Ugt1a1): 152 µM
